Measured values as given in article PMC11855827, “High-Throughput Screening of Five Compound Libraries for Anthelmintic Activity and Toxicity Leads to the Discovery of Two Flavonoid Compounds” (International Journal of Molecular Sciences, 2025).
Values joined by “and” are separate entries in the source; they are usually repeats but may differ in a detail not shown here. Identical values can stand only once.

System: C. elegans
Details: Table S2, C. elegans SS assay, 110 μM, averages of 4 data points

Molecule	Percentage of motility inhibition 0 h	Percentage of motility inhibition 24 h
O=Cc1c[nH]c2cccc(O)c12 [4‐Hydroxy‐1H‐indole‐3‐carbaldehyde]	23%	5%
COc1cc(/C=C/C(=O)O[C@@H]2[C@H](O[C@@H]3O[C@@H](C)[C@H](O)[C@@H](O)[C@H]3O)[C@@H](O[C@@H]3O[C@@H](C)[C@H](O[C@@H]4OC[C@@H](O)[C@H](O)[C@H]4O)[C@@H](O)[C@H]3O)[C@H](OC(=O)[C@]34CCC(C)(C)C[C@H]3C3=CC[C@@H]5[C@@]6(C)C[C@H](O)[C@H](O[C@@H]7O[C@H](CO)[C@@H](O)[C@H](O)[C@H]7O)[C@@](C)(C(=O)O)[C@@H]6CC[C@@]5(C)[C@]3(CO)CC4)O[C@@H]2C)cc(OC)c1OC [Onjisaponin Z]	4%	21%
Clc1ccc(C(Cn2ccnc2)OCc2ccc(Sc3ccccc3)cc2)c(Cl)c1.O=[N+]([O-])O (centres unmarked) [Fenticonazole (Nitrate)]	45%	13%
C[C@H](CC[C@@H](O[C@@H]1O[C@H](CO[C@@H]2O[C@H](CO)[C@@H](O)[C@H](O)[C@H]2O)[C@@H](O)[C@H](O)[C@H]1O)C(C)(C)O)[C@H]1CC[C@@]2(C)[C@@H]3CC=C4[C@@H](CC[C@H](O[C@@H]5O[C@H](CO)[C@@H](O)[C@H](O)[C@H]5O)C4(C)C)[C@]3(C)[C@H](O)C[C@]12C [Mogroside III]	7%	3%
CC1=NCCc2c1[nH]c1cc(O)ccc21.Cl [Harmalol (hydrochloride)]	17%	2%
COc1ccc2cc3[n+](cc2c1OC)CCc1cc(O)c(O)cc1-3.[Cl-] [Demethyleneberberine (chloride)]	0%	13%
NC1CCN(c2nc3c(cc2F)c(=O)c(C(=O)O)cn3-c2ccc(F)cc2F)C1 (centres unmarked) [Tosufloxacin (tosylate hydrate)]	44%	36%
C[C@@H]1O[C@@H](c2c(O)c([C@@H]3O[C@H](CO)[C@@H](O)[C@H](O)[C@H]3O)c(O)c3c(=O)cc(-c4ccc(O)cc4)oc23)[C@H](O)[C@H](O)[C@H]1O [Violanthin]	0%	19%
O[C@H]1[C@H]2c3cc4c(cc3CN3CC[C@H](C[C@@H]1O)[C@H]23)OCO4 [Dihydrolycorine]	0%	0%
O=C(O[C@@H]1Cc2c(O)cc(O)cc2O[C@@H]1c1cc(=O)c(O)c2c(O)c(O)cc([C@H]3Oc4cc(O)cc(O)c4C[C@H]3O)c2c1)c1cc(O)c(O)c(O)c1 [Theaflavin‐3‐gallate]	8%	22%
CC(C)[C@H](N)C(=O)OCCOCn1cnc2c(=O)nc(N)[nH]c21.Cl [Valacyclovir (hydrochloride)]	38%	9%
(+)-Catechin hydrate	12% and 8%	–
CCOC(=O)C1=C[C@@H](OC(CC)CC)[C@H](NC(C)=O)[C@@H](N)C1.O=P(O)(O)O [Oseltamivir ( phosphate)]	0%	0%
CC1(C)CC[C@]2(C(=O)O[C@@H]3O[C@H](CO)[C@@H](O)[C@H](O)[C@H]3O)CC[C@]3(C)C(=CC[C@@H]4[C@@]5(C)CC[C@H](O)C(C)(C)[C@@H]5CC[C@]43C)[C@@H]2C1 [Oleanolic acid 28-O-β-D-glucopyranoside]	33%	34%
Tubeimoside I	3%	0%
Liensinine (perchlorate)	7%	0%
COc1c(-c2ccccc2)oc2cc(O)cc(O)c2c1=O [3‐O‐Methylgalangin]	0%	4%
Cn1c(=O)c2c(ncn2CC(O)CO)n(C)c1=O (centres unmarked) [Diphylline]	66%	31%
CC(C)=CCC[C@H](C)[C@@H]1CC[C@]2(C)C3=C(CC[C@@]12C)[C@@]1(C)CC[C@H](O)C(C)(C)[C@@H]1CC3 [Tirucallol]	12%	39%
CC(C)(O)[C@H]1CC[C@@](C)([C@H]2CC[C@]3(C)[C@@H]2[C@H](O)C[C@@H]2[C@@]4(C)CC[C@H](O)C(C)(C)[C@@H]4[C@@H](O[C@@H]4O[C@H](CO)[C@@H](O)[C@H](O)[C@H]4O)C[C@]23C)O1 [Pseudoginsenoside RT5]	0%	16%
CN1[C@H]2C[C@H](OC(=O)[C@H](CO)c3ccccc3)C[C@@H]1[C@@H](O)C2 (racemic) [Racanisodamine]	–	0% and 6%
CC(C)=CCC[C@@](C)(O)[C@H]1CC[C@]2(C)[C@@H]1[C@H](O)C[C@@H]1[C@@]3(C)CC[C@H](O)C(C)(C)[C@@H]3[C@@H](O[C@@H]3O[C@H](CO)[C@@H](O)[C@H](O)[C@H]3O)C[C@]12C [(20R)-Ginsenoside Rh1]	13%	5%
COc1ccc2[nH]cc(CCO)c2c1 [5‐Methoxytryptophol]	25%	7%

Molecule	Percentage of motility inhibition 0 h	Percentage of motility inhibition 24 h
COc1c(O[C@@H]2O[C@H](C(=O)O)[C@@H](O)[C@H](O)[C@H]2O)cc2oc(-c3ccccc3)cc(=O)c2c1O [Oroxylin A‐7‐O‐glucuronide]	0%	1%
COc1cc2c(cc1O)CCN1Cc3c(ccc(OC)c3OC)CC21 (centres unmarked) [Corypalmine]	17%	16%
COc1ccc(-c2cc(=O)c3c(OC)c(OC)c(OC)c(OC)c3o2)cc1O [3'‐Demethylnobiletin]	0%	0%
CC(C)=C[C@H]1C[C@](C)(O)[C@@H]2[C@H]3CC[C@@H]4[C@@]5(C)CC[C@H](O[C@@H]6OC[C@H](O)[C@H](O[C@@H]7O[C@H](CO)[C@@H](O)[C@H](O)[C@H]7O[C@@H]7OC[C@@H](O)[C@H](O)[C@H]7O)[C@H]6O[C@@H]6O[C@@H](C)[C@H](O)[C@@H](O)[C@H]6O)C(C)(C)[C@@H]5CC[C@@]4(C)[C@@]34CO[C@@]2(C4)O1 [Jujuboside B]	0%	0%
Cl.N[C@@H]1CCCCN(c2c(F)cc3c(=O)c(C(=O)O)cn(C4CC4)c3c2Cl)C1 [Besifloxacin (Hydrochloride)]	6%	32%
COc1cc(/C=C/C(=O)NCCc2c[nH]c3ccc(O)cc23)ccc1O [N‐Feruloylserotonin]	11%	18%
CN1C[C@@H]2C[C@H](C1)c1cccc(=O)n1C2 [N‐Methylcytisine]	0%	0%
C[C@@H]1CC[C@]2(C(=O)O[C@@H]3O[C@H](CO)[C@@H](O)[C@H](O)[C@H]3O)CC[C@]3(C)C(=CC[C@@H]4[C@@]5(C)C[C@@H](O)[C@H](O)[C@@](C)(CO)[C@@H]5CC[C@]43C)[C@@H]2[C@]1(C)O [Niga-ichigoside F1]	0%	1%
COc1ccc(-c2coc3cc(O[C@@H]4O[C@H](CO)[C@@H](O)[C@H](O)[C@H]4O)ccc3c2=O)cc1O [Calycosin‐7‐O‐β‐D‐glucoside]	20%	11%
C=C[C@H]1CN2CC[C@H]1C[C@H]2[C@H](O)c1ccnc2ccc(OC)cc12.Cl.O.O [Quinine (hydrochloride dihydrate)]	–	8%
C=C(C(=O)OC1C[C@@H]2[C@H]3O[C@H]3[C@H](C1)N2C)c1ccccc1 (some centres unmarked) [Aposcopolamine]	14%	10%
CC(C)=CCC[C@](C)(O)[C@@H]1CC=C(C)CC1 [alpha-Bisabolol]	1%	6%
Hosenkoside C	0%	5%
NC(=O)C[C@H](N)C(=O)O [L-Asparagine]	27%	25%
CC[C@@]1(O)C(=O)OCc2c1cc1n(c2=O)Cc2cc3cc(OC)ccc3nc2-1 [10‐Methoxycamptothecin]	0%	0%
CCN1C[C@@]2(COC)[C@H]3[C@@H](OC)[C@H]4[C@@H]1[C@]3([C@@H](OC)C[C@H]2OC(C)=O)[C@@H]1C[C@@]2(O)[C@H](OC(=O)c3ccccc3)[C@@H]1[C@]4(OC(C)=O)[C@@H](O)[C@@H]2OC [Flaconitine]	13% and 5%	–
Cc1ncc(C[n+]2csc(CCO)c2C)c(N)n1.O=[N+]([O-])[O-] [Thiamine nitrate]	12%	1%
Cn1nnnc1SCC1=C(C(=O)[O-])N2C(=O)[C@@H](NC(=O)[C@H](OC=O)c3ccccc3)[C@H]2SC1.[Na+] [Cefamandole (nafate)]	0%	0%
C[N+](C)(C)[C@@H](Cc1c[nH]c(=S)[nH]1)C(=O)[O-] [Ergothioneine]	16%	0%
CC1(C)CC[C@]2(C(=O)O[C@@H]3O[C@H](CO)[C@@H](O)[C@H](O)[C@H]3O)[C@H](O)C[C@]3(C)C(=CC[C@@H]4[C@@]5(C)CC[C@H](O)C(C)(C)[C@@H]5CC[C@]43C)[C@@H]2C1 [Echinocystic acid 28-O-β-D-glucoside]	36%	41%
Isoliquiritin apioside	47%	8%
CN[C@@H]1[C@H](O)[C@H](NC)[C@H]2O[C@@]3(O)C(=O)C[C@@H](C)O[C@H]3O[C@@H]2[C@H]1O.Cl.Cl.O.O.O.O.O	16%	2%
